Data as given in patent publication US20240050370A1, “TRIPLE STABILIZER SYSTEM” (Bayer Aktiengesellschaft, priority 2022, published 2024).

Assay: Viscosity by rotational viscometry (MCR 302e, concentric cylinder)
Format: physicochemical
Conditions: 2 wt % HPC, 0.2 wt % anionic surfactant, PVPK12 0 to 16 wt %
Protocol: Viscosity was measured with rotational viscometry with a modular compact rheometer (MCR) 302e (Anton Paar). A concentric cylinder geometry was used. Shear rate was varied logarithmic from 0.1 1/s to 1000 1/s. 6 measurement points per decade were used. The measurement time was varied from 10 s for a shear rate of 0.1 1/s and is for 1000 1/s. Shear rate vs. Shear stress was plotted. The slope described the viscosity. The shear rate independent viscosity was evaluated, and the middle value was used.
Viscosity was measured with rotational viscometry with a modular compact rheometer (MCR) 302e (Anton Paar). A concentric cylinder geometry was used. Shear rate was varied logarithmic from 0.1 1/s to 1000 1/s. 6 measurement points per decade were used. The measurement time was varied form 10 s for a shear rate of 0.1 1/s and is for 1000 1/s.

Impact of anionic surfactant on viscosity reduction induced by PVPK12 addition (FIG. 5) | Structure (SMILES)
do not show a reduction of viscosity | C[C@H](CCC(=O)[O-])[C@H]1CC[C@H]2[C@@H]3CC[C@@H]4C[C@H](O)CC[C@]4(C)[C@H]3C[C@H](O)[C@]12C.[Na+] [Na-Deoxycholate]
strongest impact | CCCCCCCCCCCCOS(=O)(=O)[O-].[Na+] [SDS, sodium dodecyl sulfate]
